According to PubChem BioAssay AID1259407 (Chemical Carcinogenesis Research Information System (CCRIS), 2018):
Active and inactive are the calls of the source. No rule for the calls is given here.

Tested on: CCRIS mutagenicity, Ames/micronucleus/aberration tests
Test: CCRIS mutagenicity studies
[1] = Test System: AMES SALMONELLA TYPHIMURIUM, Strain/Indicator: TA98, Metabolic Activation: NONE, Method: STANDARD PLATE
[2] = Test System: AMES SALMONELLA TYPHIMURIUM, Strain/Indicator: TA98, Metabolic Activation: RAT, LIVER, S-9, AROCLOR 1254, Method: STANDARD PLATE
[3] = Test System: AMES SALMONELLA TYPHIMURIUM, Strain/Indicator: TA100, Metabolic Activation: NONE, Method: STANDARD PLATE
[4] = Test System: AMES SALMONELLA TYPHIMURIUM, Strain/Indicator: TA100, Metabolic Activation: RAT, LIVER, S-9, AROCLOR 1254, Method: STANDARD PLATE
[5] = Test System: AMES SALMONELLA TYPHIMURIUM, Strain/Indicator: TA1535, Metabolic Activation: NONE, Method: STANDARD PLATE
[6] = Test System: AMES SALMONELLA TYPHIMURIUM, Strain/Indicator: TA1535, Metabolic Activation: RAT, LIVER, S-9, AROCLOR 1254, Method: STANDARD PLATE
[7] = Test System: AMES SALMONELLA TYPHIMURIUM, Strain/Indicator: TA1537, Metabolic Activation: NONE, Method: STANDARD PLATE
[8] = Test System: AMES SALMONELLA TYPHIMURIUM, Strain/Indicator: TA1537, Metabolic Activation: RAT, LIVER, S-9, AROCLOR 1254, Method: STANDARD PLATE
[9] = Test System: AMES SALMONELLA TYPHIMURIUM, Strain/Indicator: TA1538, Metabolic Activation: NONE, Method: STANDARD PLATE
[10] = Test System: AMES SALMONELLA TYPHIMURIUM, Strain/Indicator: TA1538, Metabolic Activation: RAT, LIVER, S-9, AROCLOR 1254, Method: STANDARD PLATE

Row | Compound | mutagenic call [1] | mutagenic call [2] | mutagenic call [3] | mutagenic call [4] | mutagenic call [5] | mutagenic call [6] | mutagenic call [7] | mutagenic call [8] | mutagenic call [9] | mutagenic call [10] | other results
1 | CC(=O)C1(c2ccccc2)CCNCC1 | inactive; negative | inactive; negative | inactive; negative | inactive; negative | inactive; negative | inactive; negative | inactive; negative | inactive; negative | inactive; negative | inactive; negative | mutagenic call (Test System: AMES SALMONELLA TYPHIMURIUM, Strain/Indicator: TA98, Metabolic Activation: HAMSTER, LIVER, S-9, AROCLOR 1254, Method: STANDARD PLATE): inactive; negative; mutagenic call (Test System: AMES SALMONELLA TYPHIMURIUM, Strain/Indicator: TA100, Metabolic Activation: HAMSTER, LIVER, S-9, AROCLOR 1254, Method: STANDARD PLATE): inactive; negative; mutagenic call (Test System: AMES SALMONELLA TYPHIMURIUM, Strain/Indicator: TA1535, Metabolic Activation: HAMSTER, LIVER, S-9, AROCLOR 1254, Method: STANDARD PLATE): inactive; negative; mutagenic call (Test System: AMES SALMONELLA TYPHIMURIUM, Strain/Indicator: TA1537, Metabolic Activation: HAMSTER, LIVER, S-9, AROCLOR 1254, Method: STANDARD PLATE): inactive; negative; mutagenic call (Test System: AMES SALMONELLA TYPHIMURIUM, Strain/Indicator: TA1538, Metabolic Activation: HAMSTER, LIVER, S-9, AROCLOR 1254, Method: STANDARD PLATE): inactive; negative; mutagenic call (Test System: MOUSE LYMPHOMA, Strain/Indicator: L5178Y (TK+/TK-), Metabolic Activation: NONE, Method: SUSPENSION/PLATE): inactive; negative. reevaluation of results: negative; mutagenic call (Test System: MOUSE LYMPHOMA, Strain/Indicator: L5178Y (TK+/TK-), Metabolic Activation: RAT, LIVER, S-9, AROCLOR 1254, Method: SUSPENSION/PLATE): inactive; negative. reevaluation of results: inconclusive
2 | C=C(C)C(=O)OCCCCCOC(=O)C(=C)C | inactive; negative | inactive; negative | inactive; negative | inactive; negative | inactive; negative | inactive; negative | inactive; negative | inactive; negative | inactive; negative | inactive; negative | mutagenic call (Test System: AMES SALMONELLA TYPHIMURIUM, Strain/Indicator: TA98, Metabolic Activation: RAT, LIVER, S-9, SODIUM PHENOBARBITAL, Method: STANDARD PLATE): inactive; negative; mutagenic call (Test System: AMES SALMONELLA TYPHIMURIUM, Strain/Indicator: TA100, Metabolic Activation: RAT, LIVER, S-9, SODIUM PHENOBARBITAL, Method: STANDARD PLATE): inactive; negative; mutagenic call (Test System: AMES SALMONELLA TYPHIMURIUM, Strain/Indicator: TA1535, Metabolic Activation: RAT, LIVER, S-9, SODIUM PHENOBARBITAL, Method: STANDARD PLATE): inactive; negative; mutagenic call (Test System: AMES SALMONELLA TYPHIMURIUM, Strain/Indicator: TA1537, Metabolic Activation: RAT, LIVER, S-9, SODIUM PHENOBARBITAL, Method: STANDARD PLATE): inactive; negative; mutagenic call (Test System: AMES SALMONELLA TYPHIMURIUM, Strain/Indicator: TA1538, Metabolic Activation: RAT, LIVER, S-9, SODIUM PHENOBARBITAL, Method: STANDARD PLATE): inactive; negative
3 | CC(C)(C)Br |  |  |  |  |  |  |  |  |  |  | mutagenic call (Test System: AMES SALMONELLA TYPHIMURIUM, Strain/Indicator: TA100, Metabolic Activation: NONE, Method: DESICCATOR): active; positive; mutagenic call (Test System: AMES SALMONELLA TYPHIMURIUM, Strain/Indicator: TA100, Metabolic Activation: RAT, LIVER, S-9, AROCLOR 1254, Method: DESICCATOR): active; positive
4 | CN(C)CCNC(=O)c1cccc2c(N)c3ccccc3nc12 |  |  |  |  |  |  | active; positive |  |  |  | 
5 | Nc1ccc2c(c1)CN1C(=O)c3ccccc3C1=N2 |  |  |  |  |  |  |  |  |  |  | mutagenic call (Test System: AMES SALMONELLA TYPHIMURIUM, Strain/Indicator: DJ400, Metabolic Activation: RAT, LIVER, S-9, AROCLOR 1254, Method: PREINCUBATION): active; positive; mutagenic call (Test System: AMES SALMONELLA TYPHIMURIUM, Strain/Indicator: DJ460, Metabolic Activation: RAT, LIVER, S-9, AROCLOR 1254, Method: PREINCUBATION): active; positive; mutagenic call (Test System: AMES SALMONELLA TYPHIMURIUM, Strain/Indicator: TA98(1,8-DNP6), Metabolic Activation: RAT, LIVER, S-9, AROCLOR 1254, Method: PREINCUBATION): active; positive; mutagenic call (Test System: AMES SALMONELLA TYPHIMURIUM, Strain/Indicator: TA98, Metabolic Activation: NONE, Method: PREINCUBATION): active; positive; mutagenic call (Test System: AMES SALMONELLA TYPHIMURIUM, Strain/Indicator: TA98, Metabolic Activation: RAT, LIVER, S-9, AROCLOR 1254, Method: PREINCUBATION): active; positive; mutagenic call (Test System: AMES SALMONELLA TYPHIMURIUM, Strain/Indicator: TA100, Metabolic Activation: NONE, Method: PREINCUBATION): active; positive; mutagenic call (Test System: AMES SALMONELLA TYPHIMURIUM, Strain/Indicator: TA100, Metabolic Activation: RAT, LIVER, S-9, AROCLOR 1254, Method: PREINCUBATION): active; positive; mutagenic call (Test System: AMES SALMONELLA TYPHIMURIUM, Strain/Indicator: TA102, Metabolic Activation: NONE, Method: PREINCUBATION): active; positive; mutagenic call (Test System: AMES SALMONELLA TYPHIMURIUM, Strain/Indicator: TA102, Metabolic Activation: RAT, LIVER, S-9, AROCLOR 1254, Method: PREINCUBATION): active; positive; mutagenic call (Test System: AMES SALMONELLA TYPHIMURIUM, Strain/Indicator: TA1538(1,8-DNP6), Metabolic Activation: RAT, LIVER, S-9, AROCLOR 1254, Method: PREINCUBATION): active; positive; mutagenic call (Test System: AMES SALMONELLA TYPHIMURIUM, Strain/Indicator: TA1538, Metabolic Activation: RAT, LIVER, S-9, AROCLOR 1254, Method: PREINCUBATION): active; positive; mutagenic call (Test System: AMES SALMONELLA TYPHIMURIUM, Strain/Indicator: YG1012, Metabolic Activation: RAT, LIVER, S-9, AROCLOR 1254, Method: PREINCUBATION): active; positive; mutagenic call (Test System: AMES SALMONELLA TYPHIMURIUM, Strain/Indicator: YG1024, Metabolic Activation: RAT, LIVER, S-9, AROCLOR 1254, Method: PREINCUBATION): active; positive; mutagenic call (Test System: UDS MOUSE HEPATOCYTES, Strain/Indicator: THY INCORP, Metabolic Activation: NONE, Method: AUTORADIOGRAPHY): active; positive; mutagenic call (Test System: UDS RAT HEPATOCYTES, Strain/Indicator: THY INCORP, Metabolic Activation: NONE, Method: AUTORADIOGRAPHY): active; positive
6 | CC(=O)Nc1ccc(OC(=O)c2ccccc2OC(C)=O)cc1 | inactive; negative | inactive; negative | inactive; negative | inactive; negative | inactive; negative | inactive; negative | inactive; negative | inactive; negative | inactive; negative | inactive; negative | mutagenic call (Test System: AMES SALMONELLA TYPHIMURIUM, Strain/Indicator: TA97, Metabolic Activation: NONE, Method: STANDARD PLATE): inactive; negative; mutagenic call (Test System: AMES SALMONELLA TYPHIMURIUM, Strain/Indicator: TA97, Metabolic Activation: RAT, LIVER, S-9, AROCLOR 1254, Method: STANDARD PLATE): inactive; negative
